According to the NIST ThermoML archive (doi:10.1021/je7003947):
Several values for one entry are separate records, joined by “and”; a condition that tells them apart may be missing. Equal entries are not always repeated. ± gives the expanded uncertainty stated by the source.

Details: Liquid, Closed cell (Static) method

CC(C)O [propan-2-ol]
vapor or sublimation pressure (323.19 K): 23.6 ± 0.2 kPa

CCCC [butane]
vapor or sublimation pressure (323.12 K): 495 ± 2.2 kPa
vapor or sublimation pressure (323.13 K): 495.3 ± 2.2 kPa
vapor or sublimation pressure (323.15 K): 495.6 ± 1.8 kPa and 495.7 ± 2.2 kPa

CCC(C)O (stereo not drawn) [butan-2-ol]
vapor or sublimation pressure (323.17 K): 10.7 ± 1.4 kPa

CCO [ethanol]
vapor or sublimation pressure (323.14 K): 29.4 ± 1.4 kPa

CC(C)(C)O [2-methylpropan-2-ol]
vapor or sublimation pressure (323.2 K): 23.8 ± 1.4 kPa

CO [methanol]
vapor or sublimation pressure (323.13 K): 55.5 ± 1.4 kPa
